Legend:
α1β2γ2 GABAARs = target: T1, α1β2γ2 GABAARs (Homo sapiens, UniProt P14867+P18507+P47870); test: Potentiation of GABA-evoked currents, whole-cell patch-clamp in HEK293 cells transiently expressing recombinant GABAARs; type: cell-based; conditions: α1β2γ2
T1 construct: Shanghai Genechem Co.,Ltd (γ2 plasmid); host or cells: HEK293
Protocol: (§1) The affinities of drugs for α1, α2, α3 and α5 subunits were studied in the HEK293 cells (from FuHeng Biology, Shanghai, China) transiently expressing recombinant GABAARs (α1β2γ2, α2β3γ2, α3β3γ2 and α5β2γ2) as described previously. Briefly, the HEK293 cells were cultured in MEM medium supplemented with 10% FBS (fetal bovine serum, Gibico), 1% L-glutamine (Gibco) and 1% mycillin (Gibco). Before transfection, the cells were subcultured onto a 3.5cm dish at the ratio of 1:2. Then, the plasmids of α1/α2/α3/α5 (Origene), β2/β3 (Origene) and γ2 (Shanghai Genechem Co.,Ltd ) (5μg total DNA, ratio 1:1:2) were transfected using Fugene®HD transfection reagent (Promega). The γ2 subunit contained GFP from IRES (internal ribosomal entry site) and was used as a marker of the successful transfection. Cells were used for electrophysiology recording 18-36 hours after transfection.
(§2) Electrophysiology recordings from HEK293 cells were performed as described previously. Briefly, whole-cell patch-clamp recordings of GABA-evoked currents were made at 30 °C with the holding potential of -60 mV. The internal solution (solution in recording electrodes) contained (in mM): 120 CsCl, 10 EGTA, 10 HEPES, 4 MgCl2, 0.5 GTP, 2 ATP and pH was adjusted to 7.4 with CsOH and the external solution contained (in mM): 150 NaCl, 10 KCl, 2 CaCl2, 1 MgCl, 10 HEPES, 10 Glucose and pH was adjusted to 7.4 with NaOH. ACSF was bubbled continuously with carbogen (95%O2 and 5%CO2). For the recording of GABA-evoked currents, the slides were transferred to a recording chamber, which was perfused with ACSF at a rate of 4 ml/min. The cells were viewed under upright microscopy (Olympus), and GFP-positive cells were selected to record the currents. The interval time between each different dose of GABA was controlled, 3 to 5 minutes to avoid the desensitization of GABAARs.

α2β3γ2 GABAARs = target: T2, α2β3γ2 GABAARs (Homo sapiens, UniProt P18507+P28472+P47869); test: as above; type: cell-based; conditions: α2β3γ2, n = 8
T2 construct: Shanghai Genechem Co.,Ltd (γ2 plasmid); host or cells: HEK293
Protocol: as §1, §2

α3β3γ2 GABAARs = target: T3, α3β3γ2 GABAARs (Homo sapiens, UniProt P18507+P28472+P34903); test: as above; type: cell-based; conditions: α3β3γ2, n = 8
T3 construct: Shanghai Genechem Co.,Ltd (γ2 plasmid); host or cells: HEK293
Protocol: as §1, §2

[1] = test system: putative excitatory neurons of brain cortex; test: Potentiation of GABA-evoked currents in acute brain cortex slices; type: cell-based; conditions: Neuron; rat brain cortex slices, n = 12
PSD-95-nNOS complex = target: T4, PSD-95-nNOS complex (Rattus norvegicus, UniProt P29476); test: Co-IP of PSD-95-nNOS complex levels in the spinal dorsal horn after SNL; type: in vivo; conditions: SNL rats, (+)-borneol 5 mg/kg/d, i.v., × 3 d
T4 construct: dorsal spinal cord tissues (L4 and L5) were lysed in 400 μl RIPA; from tissue; host or cells: rat dorsal spinal cord (L4 and L5), SNL model

[2] = test system: SNL-induced mechanical hyperalgesia; test: SNL-induced mechanical hyperalgesia, paw withdrawal threshold; type: in vivo, rat; conditions: SNL rats, (+)-borneol 5 mg/kg/d, i.v., 11 consecutive days
Protocol: Neuropathic pain was induced by segmental spinal nerve ligation (SNL). Animals were anesthetized with isoflurane. After the loss of righting reflex, the animal was fixed in the prone position. The SNL model was prepared as described previously: a median skin incision with about 3-5 cm length in L4-S2 level of the mouse back was made, the muscles next to the vertebrae till the sixth lumbar protruding were separated, the L5/L6 joint protruding on the right side was exposed and excised, and L6 processus transversus was partially split so that the L4-L6 spinal nerves on the right side were exposed. L5 nerve was gently isolated and tightly ligated with 5-0 silk thread. The wound was closed with 4-0 silk thread suture and covered with iodine solution. After nerve ligation, animals with signs of paw clonus or autotomy were excluded from further experiments.
Osmotic minipumps (models 1004 for mouse and 2ML4 for rat; Alzet) and intrathecal cannulas (0.61 mm outer diameter and 0.28 mm inner diameter for mouse, 0.99 mm outer diameter and 0.58 mm inner diameter for rat) were filled with a solution of PBS. Cannulas were inserted into the subarachnoid space through the space between the L5 and L6 vertebrae and the tip of the catheter was implanted at the L5 spinal segmental level.
For rats, the threshold for 50% paw withdrawal (50% PWT) response to mechanical stimulus was assessed through a dynamic plantar apparatus (Ugo Basile, Italy). The 50% PWT refers to that the probability of paw withdrawal response to repeated mechanical stimulus is 50%. Rats were placed individually in a plastic cage (17 × 15 × 15 cm) with a wire mesh bottom which allowed full access to the paws. Behavioral accommodation was allowed for 15-20 min until cage exploration and major grooming activities ceased. A maximal cut-off of 50g/50s was set to prevent tissue damage. To record the PWT in response to mechanical stimulus, each rat was measured five times with a 5-min interval, and the mean value was recorded after excluding maximal and minimum values. The experimental procedures were performed in a double-blind manner.

locomotor activity = test: Open field test, locomotor activity; type: in vivo; conditions: mice, (+)-borneol 45 mg/kg, i.v.
Protocol: The locomotor activity was assessed by the open field test as described previously. The apparatus consisted of a large area composed of plastic, surrounded by walls that were 100 cm high. The floor was 50 × 50 cm for mice; the overall illumination was 25 lux. Each animal was gently placed in the center of the open field, and its behavior was videotaped. The distance the animals travelled was measured in a 5-min session using ANY-maze (Stoelting Co., IL, USA). After each trial, the plate was cleaned with 70% EtOH. No stressor was applied to the animals for at least 12 h before the test.

α2 subunit of GABAARs = test: Western blot of GABAAR subunit levels in the spinal dorsal horn; type: in vivo, rat; conditions: SNL rats, (+)-borneol 5 mg/kg/d, i.v., × 11 d
Protocol: (§3) Western bolt analysis was performed as described previously. Briefly, the dorsal spinal cord (L4 and L5) was dissected from sham or SNL rats and homogenized in 400μl RIPA lysis buffer containing 1 μM pepstatin, 10 μg/ml aprotinin, 10 μg/ml leupeptin, 10 μg/ml and 10 μM phenylmethylsufonyl fluoride (PMSF). After lysis for 30 min in ice, samples were centrifuged at 12,000 g for 15 min. The protein content in each supernatant fraction was determined by using Bradford's solution, and samples containing equivalent amounts of protein were applied to 10% or 15% (10% for GABA(A)α2 and α3, 15% for BDNF) acrylamide denaturing gels (SDS-PAGE). The separated proteins were transferred onto a polyvinylidene fluoride membrane. The primary antibodies were as follows: rabbit anti-GABA(A)α2 (1:500; Millipore AB5948), rabbit anti-GABA(A)α3 (1:500; Millipore AB5594), rabbit anti-BDNF (1:1000; Thermo PA1-18357, RRID:AB_1070634). Internal control was performed using rabbit anti-β-actin (1:1000; Bioss bs-0061R, RRID: AB_10855480). Appropriate horseradish peroxidase-linked secondary antibodies were used for detection by enhanced chemiluminescence (Bio-Rad).

α3 subunit of GABAARs = test: as above; type: in vivo, rat; conditions: SNL rats, (+)-borneol 5 mg/kg/d, i.v., × 11 d
Protocol: as §3

BDNF = test: Western blot of BDNF levels in the spinal dorsal horn after SNL; type: in vivo, rat; conditions: SNL rats, (+)-borneol 10 mg/kg, i.v., × 3 d
Protocol: as §3

α1-containing GABAAR = test system: α1-containing GABAAR; set-up: method as in PMID 15763546; conditions: Xenopus laevis oocytes, high dose; cited from earlier work

T1 sequence (P14867 28-456): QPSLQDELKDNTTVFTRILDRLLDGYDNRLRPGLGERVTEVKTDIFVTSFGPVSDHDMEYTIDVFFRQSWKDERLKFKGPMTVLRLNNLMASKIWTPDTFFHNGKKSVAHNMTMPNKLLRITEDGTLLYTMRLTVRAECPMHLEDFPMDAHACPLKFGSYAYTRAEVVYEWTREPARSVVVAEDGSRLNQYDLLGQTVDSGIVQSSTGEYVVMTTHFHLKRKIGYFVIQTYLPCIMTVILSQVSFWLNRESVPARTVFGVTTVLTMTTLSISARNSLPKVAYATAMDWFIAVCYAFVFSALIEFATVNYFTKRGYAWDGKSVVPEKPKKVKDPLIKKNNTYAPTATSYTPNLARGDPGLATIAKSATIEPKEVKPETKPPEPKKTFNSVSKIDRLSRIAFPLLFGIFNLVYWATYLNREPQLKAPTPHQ
T1 sequence (P47870 25-512 limits assumed): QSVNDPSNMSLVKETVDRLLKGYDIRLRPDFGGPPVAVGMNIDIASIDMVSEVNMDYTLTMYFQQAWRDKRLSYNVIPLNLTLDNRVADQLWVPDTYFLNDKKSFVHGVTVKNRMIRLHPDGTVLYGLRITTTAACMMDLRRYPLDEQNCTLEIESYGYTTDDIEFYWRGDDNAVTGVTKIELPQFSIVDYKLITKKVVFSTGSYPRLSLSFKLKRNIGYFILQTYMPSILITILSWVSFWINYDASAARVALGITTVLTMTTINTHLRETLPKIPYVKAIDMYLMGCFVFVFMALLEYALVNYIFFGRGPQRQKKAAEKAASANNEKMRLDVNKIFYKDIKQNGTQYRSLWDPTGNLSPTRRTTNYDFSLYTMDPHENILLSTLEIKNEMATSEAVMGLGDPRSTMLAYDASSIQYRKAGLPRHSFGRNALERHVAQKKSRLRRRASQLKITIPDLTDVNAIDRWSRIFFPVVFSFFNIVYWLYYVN
T1 sequence (P18507 40-475): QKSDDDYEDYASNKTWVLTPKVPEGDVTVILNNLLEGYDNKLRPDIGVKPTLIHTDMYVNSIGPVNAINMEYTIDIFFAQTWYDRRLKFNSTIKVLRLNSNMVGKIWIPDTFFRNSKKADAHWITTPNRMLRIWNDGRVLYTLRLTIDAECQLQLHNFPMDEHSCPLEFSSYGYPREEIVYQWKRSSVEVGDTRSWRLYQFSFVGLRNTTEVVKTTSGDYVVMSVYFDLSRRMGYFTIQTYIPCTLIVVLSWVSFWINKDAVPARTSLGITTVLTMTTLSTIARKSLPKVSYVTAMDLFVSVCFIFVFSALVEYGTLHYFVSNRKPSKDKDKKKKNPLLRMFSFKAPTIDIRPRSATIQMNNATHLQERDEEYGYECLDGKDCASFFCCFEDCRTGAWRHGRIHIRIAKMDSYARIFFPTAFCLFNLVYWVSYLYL
T2 sequence (P47869 29-451): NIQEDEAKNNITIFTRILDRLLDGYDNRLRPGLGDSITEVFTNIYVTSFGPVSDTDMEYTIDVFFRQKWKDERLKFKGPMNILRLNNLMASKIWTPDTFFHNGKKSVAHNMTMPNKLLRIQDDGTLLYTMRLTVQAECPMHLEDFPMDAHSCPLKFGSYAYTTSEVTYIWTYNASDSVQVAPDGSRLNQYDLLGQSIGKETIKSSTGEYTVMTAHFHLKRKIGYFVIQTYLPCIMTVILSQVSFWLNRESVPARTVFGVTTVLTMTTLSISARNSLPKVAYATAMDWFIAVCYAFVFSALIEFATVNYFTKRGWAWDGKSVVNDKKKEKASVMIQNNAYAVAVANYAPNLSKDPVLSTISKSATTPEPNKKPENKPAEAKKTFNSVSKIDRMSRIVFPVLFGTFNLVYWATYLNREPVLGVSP
T2 sequence (P28472 26-473): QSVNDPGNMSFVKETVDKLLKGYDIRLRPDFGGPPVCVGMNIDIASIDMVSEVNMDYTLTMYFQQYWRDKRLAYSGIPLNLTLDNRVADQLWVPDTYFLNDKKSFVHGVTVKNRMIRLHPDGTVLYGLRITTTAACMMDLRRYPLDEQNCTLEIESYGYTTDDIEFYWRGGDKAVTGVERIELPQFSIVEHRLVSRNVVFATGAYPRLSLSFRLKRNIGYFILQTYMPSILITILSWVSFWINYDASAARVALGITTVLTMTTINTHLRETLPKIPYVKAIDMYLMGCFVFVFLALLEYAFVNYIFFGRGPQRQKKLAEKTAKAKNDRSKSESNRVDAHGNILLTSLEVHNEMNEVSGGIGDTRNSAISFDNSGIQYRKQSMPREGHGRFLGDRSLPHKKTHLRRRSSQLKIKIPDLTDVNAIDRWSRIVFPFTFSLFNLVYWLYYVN
T2 sequence (P18507 40-475): as the sequence (P18507 40-475) above
T3 sequence (P34903 29-492): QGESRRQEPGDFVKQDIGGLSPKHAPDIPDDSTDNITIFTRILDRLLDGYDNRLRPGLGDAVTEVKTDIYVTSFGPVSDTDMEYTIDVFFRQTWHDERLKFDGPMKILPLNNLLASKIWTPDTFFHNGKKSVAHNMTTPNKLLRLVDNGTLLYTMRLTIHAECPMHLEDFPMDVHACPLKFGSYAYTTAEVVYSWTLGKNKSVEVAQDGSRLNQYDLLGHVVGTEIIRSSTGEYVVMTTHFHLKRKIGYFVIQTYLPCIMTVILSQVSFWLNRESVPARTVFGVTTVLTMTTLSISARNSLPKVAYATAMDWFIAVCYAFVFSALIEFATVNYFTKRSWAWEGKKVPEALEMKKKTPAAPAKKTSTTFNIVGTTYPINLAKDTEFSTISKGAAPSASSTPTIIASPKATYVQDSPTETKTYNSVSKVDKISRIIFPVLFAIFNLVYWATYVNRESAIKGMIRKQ
T3 sequence (P28472 26-473): as the sequence (P28472 26-473) above
T3 sequence (P18507 40-475): as the sequence (P18507 40-475) above
T4 sequence (P29476 whole entry, one chain of several): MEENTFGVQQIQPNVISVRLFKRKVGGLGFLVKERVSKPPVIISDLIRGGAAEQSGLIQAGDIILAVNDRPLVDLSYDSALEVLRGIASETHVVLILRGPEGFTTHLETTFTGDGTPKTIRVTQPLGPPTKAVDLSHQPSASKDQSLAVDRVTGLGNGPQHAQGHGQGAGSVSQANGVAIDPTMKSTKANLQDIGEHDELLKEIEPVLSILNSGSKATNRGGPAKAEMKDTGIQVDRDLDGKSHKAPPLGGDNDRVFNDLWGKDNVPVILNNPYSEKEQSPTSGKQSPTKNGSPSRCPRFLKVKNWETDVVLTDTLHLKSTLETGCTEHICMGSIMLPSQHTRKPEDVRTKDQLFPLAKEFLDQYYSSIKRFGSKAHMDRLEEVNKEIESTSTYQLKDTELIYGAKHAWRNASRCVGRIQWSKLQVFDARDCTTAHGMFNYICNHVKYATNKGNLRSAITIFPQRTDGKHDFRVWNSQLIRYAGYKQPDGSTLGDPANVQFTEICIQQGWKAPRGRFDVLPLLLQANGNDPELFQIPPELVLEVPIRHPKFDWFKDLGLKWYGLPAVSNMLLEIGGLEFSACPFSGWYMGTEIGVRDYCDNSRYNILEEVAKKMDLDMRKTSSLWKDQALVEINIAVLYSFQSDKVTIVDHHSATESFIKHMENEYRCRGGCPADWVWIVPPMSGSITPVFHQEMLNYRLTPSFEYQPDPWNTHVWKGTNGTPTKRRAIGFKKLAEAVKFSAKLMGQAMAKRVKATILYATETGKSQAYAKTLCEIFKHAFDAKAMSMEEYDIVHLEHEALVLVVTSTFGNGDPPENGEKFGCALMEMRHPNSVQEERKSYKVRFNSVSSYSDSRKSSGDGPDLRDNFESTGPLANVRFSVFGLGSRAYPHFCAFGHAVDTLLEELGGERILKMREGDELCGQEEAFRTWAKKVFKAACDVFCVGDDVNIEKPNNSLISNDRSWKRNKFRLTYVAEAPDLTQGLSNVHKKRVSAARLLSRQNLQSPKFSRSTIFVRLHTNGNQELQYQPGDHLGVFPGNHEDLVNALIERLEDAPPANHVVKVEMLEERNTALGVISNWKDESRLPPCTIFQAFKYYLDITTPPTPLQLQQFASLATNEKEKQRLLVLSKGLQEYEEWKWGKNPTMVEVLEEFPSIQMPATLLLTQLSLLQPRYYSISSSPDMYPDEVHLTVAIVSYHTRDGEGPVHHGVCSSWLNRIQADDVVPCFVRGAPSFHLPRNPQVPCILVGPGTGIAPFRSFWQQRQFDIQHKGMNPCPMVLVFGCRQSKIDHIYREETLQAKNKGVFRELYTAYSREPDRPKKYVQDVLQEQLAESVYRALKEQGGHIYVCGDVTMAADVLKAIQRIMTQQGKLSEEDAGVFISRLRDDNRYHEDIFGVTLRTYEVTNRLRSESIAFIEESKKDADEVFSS

CC1(C)[C@@H]2CC[C@@]1(C)[C@@H](O)C2 [(+)-borneol]
Effect on GABA-evoked currents of α1-containing GABAAR (in words) (α1β2γ2 GABAARs): no effect on GABA-evoked currents as high as 10 μM
Emax (α2β3γ2 GABAARs): 122 ± 11%
Emax (α3β3γ2 GABAARs): 109 ± 6.05%
EC50 [1]: 423.6 ± 1.4 pM
Emax [1]: 63.1 ± 3.4%
PSD-95-nNOS complex level in the SDH (PSD-95-nNOS complex): increased nNOS-PSD-95 interaction in the SDH significantly
Analgesic tolerance, mechanical hyperalgesia [2]: caused analgesic tolerance development rapidly
Locomotor activity, distance travelled during 5 min (locomotor activity): without BZDs-associated behavioral effects
α2 subunit of GABAARs expression in the SDH (α2 subunit of GABAARs): decreased α2 and α3 subunits of GABAARs expressions
α3 subunit of GABAARs expression in the SDH (α3 subunit of GABAARs): decreased α2 and α3 subunits of GABAARs expressions
SNL-induced BDNF expression in the SDH (BDNF): significantly decreased SNL-induced BDNF expression in the SDH
Modulation of α1-containing GABAAR (α1-containing GABAAR): can positively modulate α1-containing GABAAR expressed in Xenopus laevis oocytes at high dose

Source: paper PMC8058733, “A pain killer without analgesic tolerance designed by co-targeting PSD-95-nNOS interaction and α2-containning GABAARs” (Theranostics, 2021)
